Key:
T24 (bladder) cells = assay: MTT reduction assay, T24 cells; type: cell-based; settings: Homo sapiens, T-24, 48 h incubation, read-out: IC50 ± SEM T24
Description: (§1) As positive control, two well-known anticancer drugs, namely TAM and 5-FU, were also tested on these cell lines. […] Regarding 5-FU, it is a broad-spectrum chemotherapeutic drug used to treat a variety of malignancies. Particularly, it has a long history of use against bladder tumors.
(§2) Cell culture conditions were the same as reported elsewhere. Briefly, cell lines were kept in DMEM containing 10% fetal calf serum. In addition, 100 U/mL of penicillin and 100 µg/mL streptomycin from Gibco (Grand Island, NY, USA) were further added. Cell cultures were kept at 37 °C under an atmosphere of 95% air/5% CO2 and 100% humidity. Sodium L-ascorbate, menadione (vitamin K3), TAM, and 5-FU were purchased from Sigma (St. Louis, MO, USA).
(§3) The cytotoxicity of the quinones was assessed by following the reduction of MTT (3-(4,5-dimethylthiazol-2-yl)-2,5-diphenyltetrazolium bromide) to formazan blue and the capability of cancer cells to proliferate, namely a clonogenic assay.
(§4) Cells were seeded into 96-well plates at a density of 10,000 cells/well for 24 h and then incubated for 48 h with or without the quinone derivatives. […] The IC50 values were determined using the GraphPad Prism software (San Diego, CA, USA). Further incubation procedures and optical density reading of colored solutions were performed according to Benites et al..

DU-145 (prostate) cells = assay: MTT reduction assay, DU-145 cells; type: cell-based; settings: Homo sapiens, DU-145, 48 h, read-out: IC50 ± SEM DU-145
Description: as §1, §2, §3, §4

MCF-7 (breast) cells = assay: MTT reduction assay, MCF-7 cells; type: cell-based; settings: Homo sapiens, MCF7, 48 h incubation, read-out: IC50 ± SEM MCF-7
Description: as §1, §2, §3, §4

[1] = tested on: non-tumor fibroblasts AG 1523; assay: MTT reduction assay, non-tumor fibroblasts; type: cell-based; settings: Homo sapiens, AG1523, 48 h incubation, read-out: IC50 ± SEM AG 1523
Description: as §1, §2, §3, §4

[2] = tested on: panel of cancer cells (T24, DU-145, MCF-7); assay: MTT reduction assay, panel of cancer cells (means, ranges, selectivity index); type: cell-based, human; settings: IC50 values of fibroblasts (AG 1523)/IC50 values of tumor cells (T24, DU-145, MCF-7)
Description: as §1
Such a selective index was calculated as the ratio between IC50 values of healthy cells/IC50 values in cancer cells.
as §4

Hsp90 = assay: Immunoblot of Hsp90 protein integrity in T24 cells; type: cell-based, human; settings: 5 µM quinone plus 1 mM ascorbate, 4 h
Description: Nevertheless, when incubation was done in the presence of 1 mM ascorbate (vitamin C) plus quinones (including menadione), a new peptide fragment of about 70 kD was detected by the antibody against Hsp90.
Figure 1 Effects of selected quinones of Hsp90 (A) and poly(ADPribose)polymerase (PARP) (B) protein integrity in T24 cells. Cancer cells were incubated for 4 h with 5 µM menadione (K3), 15, 16, 19, or 20 either in the absence or in the presence of 1 mM ascorbate (Asc). Ctl represents control untreated cells. * p < 0.05 as compared to control conditions.
Cancer cells were incubated for 4 h in the absence and in the presence of compounds. Afterward, cells were washed twice with ice-cold PBS and then resuspended in RIPA lysis buffer supplemented with 1% protease inhibitor cocktail (Sigma–Aldrich, St. Louis, MO, USA) and 3% phosphatase inhibitor cocktail (Calbiochem, Darmstadt, Germany). Treatment of samples and electrophoresis conditions were conducted as previously reported. Mouse monoclonal primary antibodies against hsp90α/β C-terminus (F8), and against β-actin (clone AC-15), were purchased from Santa Cruz Biotechnology (Santa Cruz, CA, USA) and from Abcam (Cambridge, UK), respectively. Rabbit polyclonal antibodies against PARP were purchased from BD Biosciences (San Diego, CA, USA). […]

[3] = tested on: poly(ADPribose)polymerase (PARP); assay: Immunoblot of PARP protein integrity in T24 cells; type: cell-based, human; settings: 5 µM, 4 h, regardless of the presence of ascorbate (1 mM)
Description: Figure 1 Effects of selected quinones of Hsp90 (A) and poly(ADPribose)polymerase (PARP) (B) protein integrity in T24 cells. […] Ctl represents control untreated cells. * p < 0.05 as compared to control conditions. […] This was the case regardless of the presence of ascorbate (1 mM). The obtained results make a potential role of apoptosis unlikely to be the underlying mechanism of cell impairment induced by quinones, including menadione. Indeed, PARP is a substrate of caspase-3, therefore, when an apoptosis process is triggered, it is expected that PARP protein will be cleaved yielding a second protein band also recognized by the anti-PARP antibody. Cancer cells were incubated for 4 h in the absence and in the presence of compounds. Afterward, cells were washed twice with ice-cold PBS and then resuspended in RIPA lysis buffer supplemented with 1% protease inhibitor cocktail (Sigma–Aldrich, St. Louis, MO, USA) and 3% phosphatase inhibitor cocktail (Calbiochem, Darmstadt, Germany). Treatment of samples and electrophoresis conditions were conducted as previously reported. Mouse monoclonal primary antibodies against hsp90α/β C-terminus (F8), and against β-actin (clone AC-15), were purchased from Santa Cruz Biotechnology (Santa Cruz, CA, USA) and from Abcam (Cambridge, UK), respectively. Rabbit polyclonal antibodies against PARP were purchased from BD Biosciences (San Diego, CA, USA). […]

Compound	IC50 (T24 (bladder) cells) [µM]	IC50 (DU-145 (prostate) cells) [µM]	IC50 (MCF-7 (breast) cells) [µM]	IC50 [1] [µM]	MSI: mean selective index [2]	melting point [°C]	Hsp90 protein cleavage (Hsp90)	PARP cleavage [3]
CCCCCC1(O)C2=C(N=C3Sc4cc(C)ccc4N31)C(=O)c1ccccc1C2=O (centres unmarked) [Compound 17]	6.86 ± 0.33	8.46 ± 0.31	5.26 ± 0.22	7.5 ± 0.69	1.09	129 to 129.5	–	–
CC1=CC(=O)c2ccccc2C1=O [menadione, reference compound]	–	–	–	–	–	–	strong Hsp90 cleavage	neither the quinone derivatives nor menadione induced a detectable PARP cleavage
